Each structure is given as a SMILES string. Active and inactive are the calls of the source. The rule behind the calls is not given here.

Experimental findings from PubChem BioAssay AID463179 (Southern Research Specialized Biocontainment Screening …, 2010) are described below.

Assay [1] deals with Salmonella Typhi PhoP-promoter GFP reporter, fluorescence, 4 h. Description: PhoP promoter GFP reporter, Salmonella typhi, confirmatory inhibitors, fluorescence, 4 h (AID 463179).
Assay in assay [2]: as above
As to conditions: Salmonella Typhi PhoP-promoter GFP reporter, fluorescence, 4 h; at 150 µM (top of the series).

For `Clc1ccc(C2Sc3ccccc3N=C3c4ccccc4CC32)cc1` (centres undefined), in assay [1], the IC50 is 6.26 µM.

For `O=C1C2=C(Nc3ccccc3SC2c2ccc(Cl)cc2)c2ccccc21` (centres undefined), the inhibition in assay [2] is 18% (inactive).

Consider `Cc1ccc(C2Sc3ccccc3N=C3c4ccccc4CC32)cc1` (centres undefined), for which the IC50 in assay [1] was 2.67 µM.

For the compound `O=C1C2=C(Nc3ccccc3SC2c2cccc(Br)c2)c2ccccc21` (centres undefined), the inhibition in assay [2] was -12.2% (inactive).

For orientation: IC50 means the midpoint of a concentration-inhibition curve. As usually defined, the inhibition is the drop in the measured response relative to a control, in per cent.
